# Laboratory results: patent US9066948B2, “Oxadiazolo[3,2-a]pyrimidines and thiadiazolo[3,2-a]pyrimidines” (THE UNITED STATES OF AMERICA AS REPRESENTED BY THE …, priority 2010, dated 2015)
# What was measured:
# [1] = biological target: T1, HEK293 cells stably expressing normal human αVβ3 (Homo sapiens, UniProt P05106+P06756); test: αVβ3-mediated cell adhesion to vitronectin; type: cell-based
# T1 construct: expressed in transfected cells; host or cells: HEK293
# Method: (§1) Washed platelets are prepared as per the primary screening assay, suspended in HBMT containing 1 mM MgCl2 (platelet adhesion to collagen) or 2 mM CaCl2/1 mM MgCl2 (platelet adhesion to fibrinogen) and adjusted to a count of 250×10^9/L. HEK293 cells stably expressing normal human αVβ3 or normal human αIIbβ3 are suspended in HBMT containing either 1 mM MgCl2 (HEK293 cells expressing αVβ3 for adhesion to vitronectin) or 2 mM CaCl2/1 mM MgCl2 (HEK293 cells expressing αIIbβ3 for adhesion to fibrinogen); the cell counts are adjusted to 10^6/mL. Polystyrene 96-well microtiter plates (Nunc) are coated with either fibrinogen (50 μg/mL), vitronectin (5 μg/mL), or collagen (33 μg/mL, rat tail type 1; Becton Dickinson) for 1 hour, and blocked with HBMT for at least 1 hour. Platelets and cells are treated with the compound of Example 27 of the current invention or 2-ethyl-7-(piperazin-1-yl)-5H-[1,3,4]thiadiazolo-[3,2-a]pyrimidin-5-one of U.S. Ser. No. 12/514,286 in the presence or absence of anti-α2β1 mAb 6F1, anti-αIIbβ3 mAb 10E5, anti-αIIbβ3 mAb 10E5+αVβ3 mAb 7E3, αVβ3-specific mAb LM609, or anti-αVβ3+αIIbβ3 mAb 7E3, for 15 minutes at 37° C. before being added to the microtiter wells. After adhering for 1 hour at either 22° C. (platelets) or 37° C. (cells), nonadherent platelets or cells are removed by washing 3 times with HBMT containing the same ion composition as the buffer used for adhesion. […] In other experiments, 8-chambered glass coverslips (Nunc) are coated with collagen (33 μg/mL) for 1 hour at 22° C. Washed platelets are allowed to adhere for 1 hour at 22° C. and the coverslips are stained with the Alexa-488-conjugated β3-specific mAb 7H2. Adherent platelets are imaged using a Zeiss LSM-510 confocal system with Axiovert 200 microscope (Carl Zeiss, Heidelberg, Germany) using a Plan-Apochromat 100/1.4 NA oil DIC objective.
# platelets = test: Platelet adhesion assay: calcein-labeled platelets on fibrinogen-coated wells; type: cell-based; conditions: Homo sapiens, mean±SD
# Method: Thirty microliters of human fibrinogen (50 μg/mL) in Tris/saline (100 mM NaCl, 50 mM Tris/HCl, pH 7.4; American Diagnostica, Stamford, Conn.) are added to black, clear-bottom, untreated polystyrene, nonsterile 384-well microtiter plate wells (Corning no. 3711; Acton, Mass.). […] An additional wash is performed using HBMT with 1 mM MgCl2 and 2 mM CaCl2. Calcein-labeled platelets (final concentration 1×10^11/L) are treated with selected Compounds of the Invention (final concentration of 100 μM, 30 μM, 10 μM or 1 μM) at 22° C. for 20 minutes. Thirty microliters of platelets are then added to the wells. After 1 hour of adhesion, wells are washed 3 times with HBMT-1 mM MgCl2/2 mM CaCl2 and the plates are read by a fluorescent microtiter plate reader (Envision; Perkin Elmer) to detect calcein fluorescence (490 nm excitation and 515 nm emission). Negative controls consist of wells containing platelets without compounds of the invention.
# washed platelets [2] = test: Platelet adhesion/aggregation to collagen; type: cell-based, human
# Method: as §1
# hαIIb/mβ3 platelets = test: ADP-induced aggregation of platelets from mice expressing hαIIb/mβ3 (Example 45); type: cell-based, mouse
# Method: Blood may be drawn via cardiac puncture from anesthetized Sprague Dawley rats (Taconic, Hudson, N.Y.), WT C57B1/6 mice (Jackson Laboratories, Bar Harbor, Me.), and mice expressing hαIIb/mβ3 and diluted 1:1 with a mixture of 4 parts 0.165 […], pH 7.4 containing 2 mM CaCl2 and 1 mM MgCl2. Blood from consenting human volunteers is obtained from a peripheral vein using a 19 gauge needle and anticoagulated with 1:10 vol 3.8% sodium citrate. Platelet-rich plasma (PRP) may be isolated by centrifugation at 22° C. at 350 g for 10 minutes (rats); 250 g for 2.5 minutes (mice); or 650 g for 4 minutes (human). Mouse PRP samples may be adjusted to 400,000 platelets/μl with the buffer used for dilution and human PRP may be adjusted to 300,000 platelets/μl with platelet-poor plasma. Samples of PRP may be either untreated or incubated for 5 minutes at 37° C. with the Compounds of the Invention (100 μM). Platelet aggregation may be induced by adding to PRP adenosine diphosphate (ADP) at 30 μM (rats and WT mice), 20 or 30 μM (hαIIb/mβ3 mice), or 5 μM (humans), and light transmission may be measured over time in an aggregometer (Kowa AG-10E, Tokyo, Japan) with stirring. Percent inhibition may be calculated by comparing the initial slope of untreated samples to the samples treated with the Compounds of the Invention.
# washed platelets [3] = test: Effect of Mg2+ on washed platelet aggregation induced by thrombin receptor activating peptide (SFLLRN); type: cell-based, human; conditions: compound at 1 μM; SFLLRN 10 μM
# Method: Washed platelets are resuspended in buffer containing fibrinogen (200 μg/ml) and 1 mM […] in combination with either 1 mM or 20 mM Mg^2+. Aggregation is induced by adding a thrombin receptor activating peptide (SFLLRN) at 10 μM.
# washed platelets [4] = test: Effect of Mg2+ concentration on platelet adhesion to fibrinogen; type: cell-based, human; conditions: for IC50: Homo sapiens, Platelet, mean±SD, three experiments
# Method: Washed platelets in buffers containing 1 mM Ca^2+ plus 1 mM, 20 mM, or 50 mM Mg^2+ are added to wells pre-coated with fibrinogen (50 μg/ml) for 60 min at 22° C. After washing, adherent platelets are detected by acid phosphatase activity. Results are expressed as mean±SD (n=3 for the compound of Example 27 of the current invention and 2-ethyl-7-(piperazin-1-yl)-5H-[1,3,4]thiadiazolo-[3,2-a]pyrimidin-5-one (a compound disclosed and claimed in U.S. Ser. No. 12/514,286); n=2 for tirofiban).
# [5] = biological target: T2, HEK293 cells stably expressing normal human αIIbβ3 (Homo sapiens, UniProt P05106+P08514); test: αIIbβ3-mediated cell adhesion to fibrinogen; type: cell-based; conditions: same concentration as αVβ3 experiments (10 μM), n=4
# T2 construct: expressed in transfected cells; host or cells: HEK293
# Method: Washed platelets are prepared as per the primary screening assay, suspended in HBMT containing 1 mM MgCl2 (platelet adhesion to collagen) or 2 mM CaCl2/1 mM MgCl2 (platelet adhesion to fibrinogen) and adjusted to a count of 250×10^9/L. HEK293 cells stably expressing normal human αVβ3 or normal human αIIbβ3 are suspended in HBMT containing either 1 mM MgCl2 (HEK293 cells expressing αVβ3 for adhesion to vitronectin) or 2 mM CaCl2/1 mM MgCl2 (HEK293 cells expressing αIIbβ3 for adhesion to fibrinogen); the cell counts are adjusted to 10^6/mL. Polystyrene 96-well microtiter plates (Nunc) are coated with either fibrinogen (50 μg/mL), vitronectin (5 μg/mL), or collagen (33 μg/mL, rat tail type 1; Becton Dickinson) for 1 hour, and blocked with HBMT for at least 1 hour. Platelets and cells are treated with the compound of Example 27 of the current invention or 2-ethyl-7-(piperazin-1-yl)-5H-[1,3,4]thiadiazolo-[3,2-a]pyrimidin-5-one of U.S. Ser. No. 12/514,286 in the presence or absence of anti-α2β1 mAb 6F1, anti-αIIbβ3 mAb 10E5, anti-αIIbβ3 mAb 10E5+αVβ3 mAb 7E3, αVβ3-specific mAb LM609, or anti-αVβ3+αIIbβ3 mAb 7E3, for 15 minutes at 37° C. before being added to the microtiter wells. After adhering for 1 hour at either 22° C. (platelets) or 37° C. […]
# T1 sequence (P06756 31-889 limits assumed): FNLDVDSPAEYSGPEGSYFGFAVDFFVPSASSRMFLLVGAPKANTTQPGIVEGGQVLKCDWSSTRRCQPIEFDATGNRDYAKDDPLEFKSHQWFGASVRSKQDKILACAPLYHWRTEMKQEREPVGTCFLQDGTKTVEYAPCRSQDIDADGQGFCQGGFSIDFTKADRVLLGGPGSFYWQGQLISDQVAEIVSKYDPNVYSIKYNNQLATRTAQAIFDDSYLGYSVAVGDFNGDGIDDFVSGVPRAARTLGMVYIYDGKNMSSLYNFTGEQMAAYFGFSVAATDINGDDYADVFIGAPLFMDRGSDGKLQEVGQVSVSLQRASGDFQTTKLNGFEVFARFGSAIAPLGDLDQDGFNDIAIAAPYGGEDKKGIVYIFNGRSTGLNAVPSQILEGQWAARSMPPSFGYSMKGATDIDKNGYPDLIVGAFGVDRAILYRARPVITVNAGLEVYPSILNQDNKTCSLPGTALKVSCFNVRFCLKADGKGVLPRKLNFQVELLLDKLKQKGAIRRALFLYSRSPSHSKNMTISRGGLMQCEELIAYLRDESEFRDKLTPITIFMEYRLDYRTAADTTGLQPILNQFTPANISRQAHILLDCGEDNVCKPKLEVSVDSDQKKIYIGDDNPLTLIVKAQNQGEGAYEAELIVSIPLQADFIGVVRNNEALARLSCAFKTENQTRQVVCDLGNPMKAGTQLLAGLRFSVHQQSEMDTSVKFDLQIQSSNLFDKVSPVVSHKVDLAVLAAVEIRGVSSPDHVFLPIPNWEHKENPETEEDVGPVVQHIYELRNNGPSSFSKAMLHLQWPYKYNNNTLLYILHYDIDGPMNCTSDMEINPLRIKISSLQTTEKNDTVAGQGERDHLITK
# T1 sequence (P06756 891-1048 partner limits assumed): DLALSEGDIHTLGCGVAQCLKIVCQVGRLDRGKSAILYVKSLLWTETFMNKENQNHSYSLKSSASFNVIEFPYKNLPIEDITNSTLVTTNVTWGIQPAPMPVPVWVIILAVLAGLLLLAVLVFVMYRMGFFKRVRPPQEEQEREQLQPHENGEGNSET
# T1 sequence (P05106 27-788): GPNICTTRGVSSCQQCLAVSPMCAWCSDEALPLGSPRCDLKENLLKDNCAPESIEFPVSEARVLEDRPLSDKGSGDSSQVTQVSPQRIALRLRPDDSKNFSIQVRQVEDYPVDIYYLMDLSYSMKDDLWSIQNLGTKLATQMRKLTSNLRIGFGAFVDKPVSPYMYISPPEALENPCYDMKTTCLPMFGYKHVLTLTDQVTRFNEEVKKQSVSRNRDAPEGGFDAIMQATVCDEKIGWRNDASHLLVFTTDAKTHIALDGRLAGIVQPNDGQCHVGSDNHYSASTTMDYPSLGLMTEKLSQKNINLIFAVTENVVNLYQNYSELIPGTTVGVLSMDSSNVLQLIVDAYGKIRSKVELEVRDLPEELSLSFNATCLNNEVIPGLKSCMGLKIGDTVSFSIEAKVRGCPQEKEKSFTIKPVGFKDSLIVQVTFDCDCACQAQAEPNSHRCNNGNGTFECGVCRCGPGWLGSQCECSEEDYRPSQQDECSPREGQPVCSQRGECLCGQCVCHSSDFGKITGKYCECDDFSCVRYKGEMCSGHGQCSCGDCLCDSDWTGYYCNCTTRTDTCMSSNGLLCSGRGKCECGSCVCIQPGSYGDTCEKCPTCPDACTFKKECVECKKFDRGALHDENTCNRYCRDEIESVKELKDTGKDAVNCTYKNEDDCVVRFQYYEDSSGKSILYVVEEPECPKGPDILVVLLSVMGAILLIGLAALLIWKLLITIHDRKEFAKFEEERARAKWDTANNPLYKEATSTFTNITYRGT
# T2 sequence (P08514 32-887 limits assumed): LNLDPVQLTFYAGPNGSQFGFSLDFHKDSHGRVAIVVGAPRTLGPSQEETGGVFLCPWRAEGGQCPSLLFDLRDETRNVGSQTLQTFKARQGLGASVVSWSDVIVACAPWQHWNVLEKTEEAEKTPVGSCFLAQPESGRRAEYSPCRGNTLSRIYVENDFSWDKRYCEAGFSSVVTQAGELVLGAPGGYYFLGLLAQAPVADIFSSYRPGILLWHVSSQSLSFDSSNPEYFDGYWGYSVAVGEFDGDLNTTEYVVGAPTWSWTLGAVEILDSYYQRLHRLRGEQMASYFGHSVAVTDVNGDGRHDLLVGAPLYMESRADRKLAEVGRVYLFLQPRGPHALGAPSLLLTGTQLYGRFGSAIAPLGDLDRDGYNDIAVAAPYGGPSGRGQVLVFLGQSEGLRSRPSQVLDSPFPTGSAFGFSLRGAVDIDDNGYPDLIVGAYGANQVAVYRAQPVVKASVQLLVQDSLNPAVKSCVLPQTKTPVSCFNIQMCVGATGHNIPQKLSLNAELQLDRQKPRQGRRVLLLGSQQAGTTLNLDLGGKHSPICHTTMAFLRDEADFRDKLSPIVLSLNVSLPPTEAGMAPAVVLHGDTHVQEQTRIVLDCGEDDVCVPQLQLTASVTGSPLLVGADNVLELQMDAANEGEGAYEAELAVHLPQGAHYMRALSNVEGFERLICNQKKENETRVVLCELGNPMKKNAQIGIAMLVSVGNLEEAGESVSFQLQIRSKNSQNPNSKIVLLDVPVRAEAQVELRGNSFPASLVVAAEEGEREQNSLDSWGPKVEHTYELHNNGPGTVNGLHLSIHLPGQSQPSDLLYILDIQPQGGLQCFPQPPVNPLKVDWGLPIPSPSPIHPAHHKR
# T2 sequence (P08514 891-1039 partner limits assumed): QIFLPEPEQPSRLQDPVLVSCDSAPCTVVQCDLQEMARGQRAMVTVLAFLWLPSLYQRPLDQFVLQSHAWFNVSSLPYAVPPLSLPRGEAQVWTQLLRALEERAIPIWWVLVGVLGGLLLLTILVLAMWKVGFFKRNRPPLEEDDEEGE
# T2 sequence (P05106 27-788): as the sequence (P05106 27-788) above
smiles,measurement,setting,value
"NCC(=O)Nc1cccc(-c2nn3c(=O)cc(N4CCNCC4)nc3s2)c1 [Example 27, 2-amino-N-(3-(5-oxo-7-(piperazin-1-yl)-5H-[1,3,4]thiadiazolo[3,2-a]pyrimidin-2-yl)phenyl)acetamide]",selectivity for αIIbβ3 compared to αVβ3,[1],selective for αIIbβ3 compared to αVβ3
same,inhibition at 10 µM,platelets; 10 μM,66 ± 10%
same,inhibition at 30 µM,"platelets; 30 μM, 5 separate experiments",80 ± 13%
same,inhibition at 100 µM,"platelets; 100 μM, 5 separate experiments",83 ± 7%
same,inhibition of platelet adhesion/aggregation to collagen,washed platelets [2]; 1-100 μM,~30%
same,further inhibition of adhesion/aggregation to collagen when combined with anti-αIIbβ3 antibody 10E5,washed platelets [2]; combination with mAb 10E5,does not further inhibit adhesion/aggregation
same,"platelet adhesion to collagen, microscopic analysis",washed platelets [2]; confocal microscopy of adherent platelets,does not decrease platelet adhesion to collagen
same,inhibition of aggregation of platelets from a mouse expressing hαIIb/mβ3,hαIIb/mβ3 platelets,essentially completely inhibits the aggregation
same,effect of Mg2+ on the inhibition of SFLLRN-induced platelet aggregation,washed platelets [3],clearly attenuated at 20 mM Mg^2+
same,decrease in affinity going from 1 to 50 mM Mg2+,washed platelets [4]; 1 to 50 mM Mg2+,~80%
same,increase in IC50 going from 1 to 50 mM Mg2+,washed platelets [4]; 1 to 50 mM Mg2+,~4.5 fold
same,IC50,washed platelets [4]; 1 mM Mg2+,290 ± 100 nM
same,IC50,washed platelets [4]; 20 mM Mg2+,910 ± 210 nM
same,IC50,washed platelets [4]; 50 mM Mg2+,1300 ± 350 nM
same,inhibition at 10 µM,[5],65 ± 5%
